We go through 2 substances from patent publication US5763396A, “Method of treating or preventing type 1 diabetes by oral administration of insulin” (AutoImmune Inc., priority 1995, dated 1998).

“And” between values parts separate entries of the source, which are not always exact repeats. Equal entries are not always repeated. “Also recorded” adds a separate entry of the source.

Common to all, as to assay type: in vivo
The subject of experiment [1] is NOD mice. The experiment is described as follows: Glucose post oral insulin in fasting 7 week NOD mice (Example 2). Particulars: for blood glucose over the next 24 hours / blood glucose change after feeding (protein load) / drop in blood glucose after feeding: 1 mg oral; for blood glucose over the next 24 hours: animals in fasting state. The method, then:
In order to determine whether any endocrinologic (i.e. direct lowering of blood sugar) effects occurred following the feeding of insulin, 7 week old NOD mice (5 mice per group) were fed 1 mg of porcine insulin or 1 mg of myelin basic protein (obtained from Pel Freez, Rogers, Ark.) as a control protein. Blood glucose was then measured over the next 24 hour period. As a positive control, a separate group of animals were injected subcutaneously with 20 micrograms of Porcine insulin. All animals were kept in the fasting state.

Experiment [2] relates to NOD mice. The experiment in a line: Effect of feeding porcine insulin on spontaneous diabetes in NOD mice (Example 1). The source says:
NOD (non-obese diabetic mice) were obtained from Taconic Laboratories (Germantown, Mass.) at 4 weeks of age. There were a total of 30 animals in each of the groups mentioned below at the beginning of the experiment. At […] of age, animals were orally administered Porcine insulin (Novo Laboratories, Danbury, Conn.). Each animal received two treatments orally twice a week until 9 weeks of age. The mice were fed either saline (control) or 10 micrograms, 100 micrograms, or 1 milligram of Porcine insulin. The animals were fed (gavaged) with an 18 gauge ball-point needle (Popper and Sons, Inc., New Hyde Park, N.Y.). Beginning at 10 weeks the animals were then fed once a week for a total of 33 weeks. Beginning at 12 weeks the urine was tested weekly for the presence of glucose using Glucosuria test tape (Eli Lilly, Indianapolis, Ind.). If an animal tested 3+ or higher on the glucose urine test, a serum sample was taken and blood glucose measured using a glucose analyzer (Beckman). If the blood glucose was 220 or higher, the animals were classified as diabetic and then sacrificed.

The subject of experiment [3] is NOD mice. The experiment in a line: Insulitis in insulin-fed NOD mice (preliminary experiments). Particulars: fed 1 mg insulin vs PBS-fed NOD mice, data not shown. The source says:
Therefore, oral administration of insulin to NOD mice appeared to be affecting the infiltration of immune system cells into the pancreas and thus halting disease progression by preserving beta cell function.

Experiment [4] has as its system NOD mice. The experiment in a line: Effect of aerosol administration of insulin on diabetes in NOD mice (Example 4). Particulars: aerosol by nebulizer, 0 to 1 mg. Here is the method:
Insulin (0 to 1 mg as in Examples 1 and 2) will be administered to NOD mice as described above in Examples 1 and 2 except in aerosol form by nebulizer.

The test system of experiment [5] is NOD mice. The experiment is described as follows: Treatment of initial stages of diabetes in NOD mice (Example 5). Particulars: oral and aerosol, 0 to 1 mg, hyperglycemic NOD mice. The method, then: Insulin (0 to 1 mg as in Examples 1 and 2) will be administered to NOD mice which are suffering from hyperglycemia in an oral and aerosol form. The treatments will begin by weeks 12-20 of age, by which the serum glucose levels are at hyperglycemic concentrations in a certain percentage of animals prior to onset of diabetes.

The mark [6] stands for this setting: 20 micrograms porcine insulin subcutaneously, fasting 7 week NOD mice.

Consider myelin basic protein, for which the “blood glucose over the next 24 hours” value in the experiment on NOD mice [1] is “gradual decrease in blood glucose”. In addition, in the experiment with NOD mice [1] (fasting 7 week NOD mice), the “blood glucose change after feeding (protein load)” value is recorded as “increase in blood glucose” and the “drop in blood glucose after feeding” value is “no drop in the blood glucose”.
Porcine insulin: the development of diabetes result in the experiment on NOD mice [2] (NOD mice fed 1 mg porcine insulin orally, diabetic = blood glucose 220 or higher) was “none of the mice went on to develop diabetes; also recorded: no diabetes developed; also recorded: None of the animals developed diabetes”. Besides, the development of diabetes entry in the experiment on NOD mice [2] (NOD mice fed 10 micrograms porcine insulin orally) is on record as “diabetes developed”. Further, the development of diabetes entry in the experiment with NOD mice [2] (NOD mice fed 100 micrograms porcine insulin orally) is listed as “diabetes developed”. The incidence of diabetes entry in the experiment with NOD mice [2] (all doses of orally administered insulin tested (10 micrograms to 1 mg)) is listed as “lower incidence of diabetes; also recorded: reduced the numbers of these mice which subsequently went on to develop diabetes”. In the experiment on NOD mice [2] (fed 1 mg insulin, none diabetic, individual animals), the “blood sugar on 10 representative animals” value is 174 mg/dl and 128 mg/dl and 125 mg/dl (2×) and 145 mg/dl and 123 mg/dl and 136 mg/dl and 155 mg/dl and 115 mg/dl and 130 mg/dl. For the same substance, the “blood sugar in animals which developed diabetes” value in the experiment on NOD mice [2] (fed 10 micrograms of insulin, individual animals) is 330 mg/dL and 420 mg/dL and 315 mg/dL and 459 mg/dL and 520 mg/dL and 487 mg/dL. Moreover, the “blood sugar in animals that became diabetic” value in the experiment on NOD mice [2] (fed 100 micrograms of insulin, individual animals) is 500 mg/dL and 290 mg/dL and 600 mg/dL and 450 mg/dL. In the experiment with NOD mice [1] (1 mg oral insulin, NOD mice), the “endocrinologic (metabolic) effects” value is recorded as “not a metabolic effect; also recorded: no endocrinologic (metabolic) effects”. The “blood glucose over the next 24 hours” value in the experiment on NOD mice [1] is “gradual decrease in blood glucose”. Moreover, in the experiment with NOD mice [1] (fasting 7 week NOD mice), the “blood glucose change after feeding (protein load)” value is “increase in blood glucose” and the “drop in blood glucose after feeding” value is given as “no drop in the blood glucose”. Moreover, in the experiment with NOD mice [1] (setting [6]), the “decrease in the glucose level” value was “approximately 80 mg %” and the “period over which glucose decrease persisted” value worked out at 4 h. Moreover, in the experiment on NOD mice [3], the “inflammatory immune system cells surrounding the pancreas (insulitis)” value was “fewer inflammatory immune system cells surrounding the pancreas”. Moreover, the “prevention of manifestation of symptoms (hyperglycemia) of Type 1 diabetes” value in the experiment on NOD mice [4] was “effective in preventing the manifestation of symptoms”. For the same substance, in the experiment on NOD mice [5], the beta cell function entry is “preservation of beta cell function” and the serum glucose concentrations result was “reduction in serum glucose concentrations to near normal levels”.
